# Key:
# human estrogen receptor = biological target: T1, human estrogen receptor (Homo sapiens, UniProt P03372); assay: 2× VIT ERE Infection Assay (infection luciferase activity); format: cell-based; settings: 24 h, read-out: Infection Luciferase Activity, 1 uM
# T1 construct: expressed in transfected cells; host or cells: CHO (Chinese Hamster Ovary) cells, stably transfected
# Method: 48 h prior to treatment the growth medium was replaced with DMEM lacking phenol red+10% dextran coated charcoal stripped FBS (treatment medium).
# Reporter DNA (Promega plasmid pGL2 containing two tandem copies of the vitellogenin ERE in front of the minimal thymidine kinase promoter driving the luciferase gene) was combined with the B-galactosidase expression plasmid pCH110 (Pharmacia) and carrier DNA (pTZ18U) in the following ratio:
# 20 uL of this mixture was added to each well of cells and remained on the cells for 16 h. […] Each treatment condition was performed on 8 wells (n=8) which were incubated for 24 h prior to the luciferase assay.
# After 24 h exposure to compounds, the media was removed and each well washed 2× with 125 uL of PBS lacking Mg^++ and Ca^++. After removing the PBS, 25 uL of Promega lysis buffer was added to each well and allowed to stand at room temperature for 15 min, followed by 15 min at -80° C. and 15 min at 37° C.
# The luciferan substrate (Promega) was added in 100 uL aliquots to each well automatically by the luminometer and the light produced (relative light units) was read 10 seconds after addition.
# To the remaining 5 uL of lysate 45 uL of PBS was added. Then 50 uL of Promega B-galactosidase 2× assay buffer was added, mixed well and incubated at 37° C. for 1 hour. A plate containing a standard curve (0.1 to 1.5 milliunits in triplicate) was set up for each experimental run. The plates were analyzed on a Molecular Devices spectrophotometric plate reader at 410 nm. The optical densities for the unknown were converted to milliunits of activity by mathematical extrapolation from the standard curve.
# The luciferase data was generated as relative light units (RLUs) accumulated during a 10 second measurement and automatically transferred to a JMP (SAS Inc) file where background RLUs were subtracted. The B-galactosidase values were automatically imported into the file and these values were divided into the RLUs to normalize the data. The mean and standard deviations were determined from a n=8 for each treatment.
# estrogen receptor = biological target: T2, estrogen receptor (Homo sapiens, UniProt P03372); assay: In vitro Estrogen Receptor Binding Assay (competition with [3H]-17β-estradiol); settings: compared with indenoindole #6
# T2 construct: expressed in transfected cells; host or cells: CHO cells overexpressing the receptor; cytosol (100,000 g supernatant)
# T2 sequence (P03372 1-595): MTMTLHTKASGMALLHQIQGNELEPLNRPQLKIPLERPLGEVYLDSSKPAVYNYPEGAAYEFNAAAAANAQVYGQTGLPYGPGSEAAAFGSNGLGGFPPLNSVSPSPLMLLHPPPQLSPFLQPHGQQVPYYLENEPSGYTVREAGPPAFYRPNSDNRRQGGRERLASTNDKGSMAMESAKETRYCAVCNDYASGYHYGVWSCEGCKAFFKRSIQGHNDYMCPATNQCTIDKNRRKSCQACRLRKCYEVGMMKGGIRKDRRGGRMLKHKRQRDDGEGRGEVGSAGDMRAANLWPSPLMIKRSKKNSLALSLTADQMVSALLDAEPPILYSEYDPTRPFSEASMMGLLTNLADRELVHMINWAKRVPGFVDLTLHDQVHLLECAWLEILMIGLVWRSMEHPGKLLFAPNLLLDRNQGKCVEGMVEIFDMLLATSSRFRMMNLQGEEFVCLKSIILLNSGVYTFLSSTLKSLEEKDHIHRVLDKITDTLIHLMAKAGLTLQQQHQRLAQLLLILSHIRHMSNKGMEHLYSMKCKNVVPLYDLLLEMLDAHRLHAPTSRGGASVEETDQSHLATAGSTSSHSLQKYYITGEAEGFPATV
# Method: CHO cells overexpressing the estrogen receptor were grown in 150 mm^2 dishes in DMEM+10% dextran coated charcoal, stripped fetal bovine serum. The plates were washed twice with PBS and once with 10 mM Tris-HCl, pH 7.4, 1 mM EDTA. Cells were harvested by scraping the surface and then the cell suspension was placed on ice. Cells were disrupted with a hand-held motorized tissue grinder using two, 10-second bursts. The crude preparation was centrifuged at 12,000 g for 20 minutes followed by a 60 minute spin at 100,000 g to produce a ribosome free cytosol. The cytosol was then frozen and stored at -80° C. […]
# The competition assay was performed in a 96-well plate (polystyrene*) which binds <2.0% of the total input [^3 H]-17β-estradiol and each data point was gathered in triplicate. […] Samples were counted to 2% or 10 minutes, whichever occurs first. […] 17βestradiol, wells containing radioactivity and cytosol, but not processed with charcoal were included to quantitate amounts of available isotope. Also, wells containing radioactivity but no cytosol were processed with charcoal to estimate unremovable DPM of [^3 H] […]
# Counts per minute (CPM) of radioactivity were automatically converted to disintegrated per minute (DPM) by the Beckman LS 7500 Scintillation Counter using a set of quenched standards to generate a H# for each sample. […]
# ovariectomized rat = settings: cited from earlier work
# bone = settings: in humans; cited from earlier work
# uterus = settings: in vivo; cited from earlier work
SMILES,activation at 1 µM (human estrogen receptor),bind to the ER receptor (comparison in words) (estrogen receptor),other results
"COc1ccc2c(c1)Cc1c-2n(Cc2ccc(OCCN3CCCCC3)cc2)c2ccc(O)cc12 [Cmpd. 6, 2-Methoxy-5-[4-(2-piperidin-1-yl-ethoxy)-benzyl]-5,10-dihydro-indeno[1,2-b]indol-8ol]",-2%,–,–
"COc1ccc2c(c1)CCc1c-2n(Cc2ccc(OCCN3CCCCC3)cc2)c2ccc(O)cc12 [Cmpd. 21, 3-Methoxy-11-[4-(2-piperidin-1-yl-ethoxy)-benzyl]-5,11-dihydro-6H-benzo[a]carbazol-8-ol]",-7%,bind better to the ER receptor than the indenoindole #6,–
O=C(c1ccc(OCCN2CCCCC2)cc1)c1c(-c2ccc(O)cc2)sc2cc(O)ccc12 [Raloxifene],–,–,ability to spare bone (ovariectomized rat): maintaining the ability to spare bone; stimulation of uterine growth (ovariectomized rat; compared with Tamoxifen): stimulate uterine growth in the ovariectomized rat to a lesser extent than Tamoxifen
"COc1ccc2c(c1)CCc1c-2n(Cc2ccc(OCCN3CCCCCC3)cc2)c2ccc(O)cc12 [Cmpd. 22, 11-[4-(2-Azepan-1-yl-ethoxy)-benzyl]-3-methoxy-5,11-dihydro-6H-benzo[a]carbazol-8-ol]",1%,bind better to the ER receptor than the indenoindole #6,–
CC/C(=C(\c1ccccc1)c1ccc(OCCN(C)C)cc1)c1ccccc1 [Tamoxifen],–,–,effect on the bone (bone): estrogen agonist-like effect on the bone; agonism in the uterus (uterus): partial agonist in the uterus
